According to patent US10206944B2, “Chondroitin for use in medicine” (ALTERGON S.A., priority 2012, dated 2019):

Legend:
HaCat cells = test: Wound-healing test by time-lapse microscopy (keratinocyte growth); type: cell-based, human; conditions: for time to wound repair (closure of the cut): HaCat confluent layer with cut, time-lapse, control closes after 40 h; for effect on the repair process: concentration of 0.1 w/v
Description: HaCat cells, an immortalised cell line of human keratinocytes, are used as model system. The HaCat cells are grown and amplified in Dulbecco's Modified Eagle Medium (DMEM) containing 10% foetal bovine serum (FBS)+1% Pen-Strep solution (10,000 units of penicillin-G/mL and 10 mg of streptomycin/mL in saline solution) in an incubator for cell cultures (37° C., 5% CO2 in humid air). The wound-healing experiments are conducted by time-lapse optical microscopy, a technique that allows cell behaviour to be monitored for lengthy times (2-4 days) in terms of adhesion, proliferation and motility. The system consists of an inverted optical microscope (Zeiss Axiovert 200), a thermostatic bath (LAUDA Ecoline), a CO2 microincubator with geometry such as to house plates of variable dimensions (from 6 to 96 wells), and a control unit for the output gases (air and CO2). The instrument is also equipped with a digital video camera and a control motor, which allows the incubator to move along directions x, y and z so that the images selected by the operator can be recorded and acquired at pre-set intervals.
The system thus assembled allows the cells to be maintained in an environment that reproduces the optimum conditions for cell growth (atmosphere with 5% v/v of CO2 in humid air and temperature of 37±0.1° C.), and monitored throughout the experiment. The system is also equipped with software which allows accurate analysis of the images. In particular, the instrumentation is equipped with automated software which allows wound repair to be calculated in wound-healing tests and provides data about the repair rate and cell migration rate, which are important parameters for evaluating the biorevitalising effect of substances that can accelerate or inhibit wound repair in vitro. […]

dogs suffering from DJD = test: Treatment of degenerative joint disease in dogs; type: in vivo, dog; conditions: dogs with DJD, 15 mg/Kg/day with food, 6 months; scale of 1 to 10; placebo 2.5±1.3
Description: The therapeutic potential of chondroitin in the treatment of joint disease was evaluated in the dog, an experimental model wherein degenerative or inflammatory orthopaedic problems associated with degenerative joint disease (DJD) are particularly recurrent at both young and geriatric age.
The study was conducted on 90 animals with a mean weight of 30±10 Kg, a mean age of about 8 years, of different breeds, both males and females, all suffering from DJD of the shoulder, hip and/or stifle, randomised into three groups of 30 animals treated with 15 mg/Kg/day of chondroitin (C group), 15 mg/Kg/day of chondroitin sulphate (CS group) or 15 mg/Kg/day of starch (placebo group). The animals received the daily dose with their food. An X-ray and a set of diagnostic tests for DJD were conducted on a preliminary basis on all the animals included in the study. […] The study continued for 6 months; during the treatment, the animals, which were cared for by their owners, were monitored by three veterinary surgeons who independently evaluated the state of the animals. Every month the animals' owners and the three veterinary surgeons filled in a questionnaire, allocating a score on a scale of 1-5 to a set of parameters. Once a month the owners evaluated, on a scale of 1 to 5, the lameness of the animal, its willingness to play, load tolerance, and behaviour indicating pain symptoms. […]

| Substance | time to wound repair (closure of the cut) (HaCat cells) | effect on the repair process (HaCat cells) | average overall score for the regression of the disease (dogs suffering from DJD) |
| --- | --- | --- | --- |
| chondroitin | less than 20 h | accelerates the repair process | 8.5±2.1 |
| chondroitin sulphate [CS, reference compound] | > 70 h | slows it | 5.3±2.3 |
